Test results published in paper PMC7445415 (2020).

Key:
[1] = tested on: poly(A)-poly(U) (RNA, polymer) A/U; test: UV melting, 260 nm; details: Na+ (sodium cacodylate, I = 0.05 M); cacodylate pH 5.0; r = [NDI]/[polynucleotide] = 0.3; per base
[2] = tested on: poly(dA-dT)2 (DNA, polymer) AT; test: UV melting, 260 nm; details: Na+ (sodium cacodylate, I = 0.05 M); cacodylate pH 5.0; r = [NDI]/[polynucleotide] = 0.3; per base
[3] = tested on: poly(A)-poly(U) (RNA, polymer) A/U; test: ITC, one set of sites; details: Na+ (sodium cacodylate, I = 0.05 M); cacodylate pH 5.0, 298 K (293 K in Experimental); n fixed 0.2; polynucleotide as nucleobases; per base
[4] = tested on: poly(dA-dT)2 (DNA, polymer) AT; test: ITC, one set of sites; details: Na+ (sodium cacodylate, I = 0.05 M); cacodylate pH 5.0, 298 K (293 K in Experimental); n fixed 0.2; polynucleotide as nucleobases; per base
[5] = tested on: poly(dG-dC)2 (DNA, polymer) GC; test: ITC, one set of sites; details: Na+ (sodium cacodylate, I = 0.05 M); cacodylate pH 5.0, 298 K (293 K in Experimental); n fixed 0.2; polynucleotide as nucleobases; per base
[6] = tested on: poly(A)-poly(U) (RNA, polymer) A/U; test: fluorescence titration, Scatchard fit; details: Na+ (sodium cacodylate, I = 0.05 M); cacodylate pH 5.0, 25 °C; 1 µM compound; n fixed 0.2; polynucleotide as nucleobases; per base
[7] = tested on: poly(dA-dT)2 (DNA, polymer) AT; test: fluorescence titration, Scatchard fit; details: Na+ (sodium cacodylate, I = 0.05 M); cacodylate pH 5.0, 25 °C; 1 µM compound; n fixed 0.2; polynucleotide as nucleobases; per base
[8] = tested on: poly(dG-dC)2 (DNA, polymer) GC; test: fluorescence titration, Scatchard fit; details: Na+ (sodium cacodylate, I = 0.05 M); cacodylate pH 5.0, 25 °C; 1 µM compound; n fixed 0.2; polynucleotide as nucleobases; per base

Structure (SMILES) | ∆Tm [1] | ∆Tm [2] | logKs [3] | logKs [4] | logKs [5] | logKs [6] | logKs [7] | logKs [8]
C[N+](C)(C)CCCN1C(=O)c2cc(NC[C@H](N)C(=O)O)c3c4c(cc(Cl)c(c24)C1=O)C(=O)N(CCC[N+](C)(C)C)C3=O | +17.5 ± 0.5 °C | +21.6 ± 0.5 °C | 5.9 | 6.3 | 6.7 | 6.0 | 6.0 | 7.2
C[N+](C)(C)CCCN1C(=O)c2cc(NCCCC[C@H](N)C(=O)O)c3c4c(cc(Cl)c(c24)C1=O)C(=O)N(CCC[N+](C)(C)C)C3=O | +25.1 ± 0.5 °C | +28.2 ± 0.5 °C | 6.6 | 6.8 | 6.7 | 6.4 | 6.1 | 6.6
C[N+](C)(C)CCCN1C(=O)c2cc(NCC[N+](C)(C)C)c3c4c(cc(Cl)c(c24)C1=O)C(=O)N(CCC[N+](C)(C)C)C3=O | +30.3 ± 0.5 °C | +35.4 ± 0.5 °C | 6.7 | 6.4 | 6.5 | 6.2 | 6.6 | 6.4
